Source: patent publication US12144792B2, “Therapeutic agents for neurodegenerative diseases” (priority 2016, dated 2024)

How the values were obtained:
Npc1^−/− mice [1] = test: Gait analysis (CatWalk); format: in vivo, mouse; settings: 0.1 g/kg from weaning, eight weeks of age, vs untreated littermates
Method: Separate groups of Npc1^−/− and Npc1^+/+ mice were left untreated, as controls. Gait analysis was performed on mice at eight weeks of age using a CatWalk® 15.0 system according to manufacturer's instructions (Noldus, Nottingham, UK). Five runs were recorded per animal. CatWalk® parameters measured were: • 1. Stand Mean: average duration (s) of paws in contact with glass plate; • 2. Step Cycle: duration (s) between two consecutive contacts of the same paw; • 3. Duty Cycle: percentage of time paws in contact with plate compared with time to complete a step cycle; • 4. Step Sequence (AB): percentage of time spent walking in LF-RH-RF-LH alternating pattern (LF: left front; RH: right hind; RF: right front; LH left hind); • 5. Cadence: step per seconds in a trial; • 6. Diagonal Support: percentage of time with simultaneous contact of diagonal paws with the glass plate (RF&LH or RH&LF). Motor Function Analysis

Npc1^−/− mice [2] = test: Motor function analysis (Open Field Activity Monitor); format: in vivo, mouse; settings: 0.1 g/kg from weaning, nine weeks of age, vs untreated littermates
Method: Separate groups of Npc1^−/− and Npc1^+/+ mice were left untreated, as controls. Motor function analysis was performed on mice at eight and nine weeks of age using an Open Field Activity Monitor according to manufacturer's instructions (Linton Instruments, Amlogger Software). Each mouse was placed in a plastic cage with bedding and analysed for five minutes. Rears were counted manually. Motor function parameters measured were: • 1. Centre Rearing: mice rearing on hind legs unsupported; • 2. Rearing: mice rearing on hind legs with and without the support of cage walls; • 3. Activity: regular movement of the animal including walks; • 4. Front to Back (FR) count: movement of the animal from front to back of the cage; • 5. Active Time: duration (s/min) of activeness regardless of movement; • 6. Mobile Time: duration (s/min) of mobility; • 7. Rearing Time: duration of any rearing.

Npc1^−/− mouse = test: Lifespan; format: in vivo; settings: 0.1 g/kg from 3 weeks of age
Text: Separate groups of Npc1^−/− and Npc1^+/+ mice were left untreated, as controls.

[3] = tested on: fibroblast cell line from an NPC patient; test: Lysosomal volume via LysoTracker; format: cell-based, human; settings: fibroblasts from NPC patient of mild clinical severity; 1 mM
Method: A fibroblast cell line from an NPC patient was treated for 3 days with N-acetyl-DL-leucine (1 mM) and relative lysosomal volume was quantified via LysoTracker, a fluorescent dye that accumulates in acidic organelles. Increased LysoTracker fluorescence is indicative of an increase in lysosomal size and/or number, and is a hallmark of NPC cells.

[4] = tested on: Niemann-Pick A (NPA) patient fibroblasts; test: Lysosomal volume via LysoTracker; format: cell-based, human; settings: 1 mM, 6 days, vs untreated
[5] = tested on: Mucolipidosis Type IIIA (MLIIIA) patient fibroblasts; test: Lysosomal volume via LysoTracker; format: cell-based, human; settings: 1 mM, 6 days, vs untreated
[6] = tested on: Hexb^−/− mouse (Sandhoff disease model); test: Bar crossing test; format: in vivo
Text: This study made use of a mouse model of Sandhoff disease, the Hexb^−/− mouse, as described in Jeyakumar et al. (Jeyakumar, M. et al. (1999) Proc. Natl. Acad. Sci. USA 96: 6388-6393). The bar crossing test is a method for assessing motor function in mice in which the mouse is placed hanging from the centre of a horizontal bar by its front limbs. A wild-type mouse with normal motor function will be able to engage its hind limbs and thereby move to one of the platforms at either end of the bar, and in doing so complete the test. […] In FIG. 7B, acetyl-leucine treatment of 0.1 g/kg body weight was provided from 3 weeks of age. The acetyl-leucine treated Sandhoff mice retained the ability to complete the test up to 13 weeks of age (inclusive). Data shown is the mean of 6 mice per group. The treated Sandhoff mice retained the ability to complete the test up to 13 weeks of age (inclusive).

[7] = tested on: AB variant of Tay-Sachs disease patient fibroblasts; test: Glycosphingolipid (GSL) levels via HPLC; format: cell-based, human; settings: 1 mM for 6 days
[8] = tested on: patient with oligosymptomatic MSA-C; test: Gait analysis; format: in vivo, human; settings: Ex. 8 Patient 3, MSA-C; 3 then 5 gram per day; after one month
Method: After one month of treatment, a further examination was carried out.
Treatment was again suspended and the patient was evaluated three weeks later.

[9] = tested on: amyloid precursor protein C-terminal fragments (APP-CTFs); test: APP-CTF levels relative to total APP in the cerebellum; format: in vivo, mouse; settings: NPC1−/− mice, 0.1 g/kg body weight daily from 3 weeks of age; sacrificed at 8 weeks
Method: The Niemann-Pick Disease Type C (NPC) mouse model shares a number of pathological features with Alzheimer's disease (AD) as described herein. […] Mice were sacrificed at 8 weeks of age. Levels of amyloid precursor protein C-terminal fragments (APP-CTFs) were evaluated relative to total amyloid precursor protein (APP) levels in the cerebellum for wild type, untreated wild type NPC1^−/− mice, and AL-treated wild type NPC1^−/− mice. Levels of microtubule-associated protein 1A/1B-light chain 3-phosphatidylethanolamine conjugate (LC3-II) were also evaluated relative to levels of tubulin loading control for wild type, untreated wild type NPC1^−/− mice, and AL-treated wild type NPC1^−/− mice.

CC(=O)NC(CC(C)C)C(=O)O (racemic) [acetyl-DL-leucine]
gait properties (Npc1^−/− mice [1]): significantly improved gait | motor function properties (Npc1^−/− mice [2]): significantly improved motor function | lifespan (Npc1^−/− mouse): small but statistically significant increase in lifespan | LysoTracker fluorescence (lysosomal volume) [3]: significant decrease in LysoTracker fluorescence | LysoTracker fluorescence (lysosomal volume) [4]: statistically significant reduction in LysoTracker fluorescence | LysoTracker fluorescence (lysosomal volume) [5]: trend in reducing LysoTracker fluorescence | age up to which the ability to complete the bar crossing test was retained ([6]; Sandhoff mice, 0.1 g/kg from 3 weeks of age, inclusive): up to 13 weeks of age | motor function in bar-crossing test ([6]; Sandhoff mouse, 0.1 g/kg body weight from 3 weeks of age): improved motor function and hind-limb mobility/engagement | GSL levels [7]: trend towards decreased GSL levels | gait analysis, summary [8]: improvement of gait speed, and reductions of track width and gait fluctuations | APP-CTF levels relative to total APP in the cerebellum [9]: lowering of APP-CTFs
